# Patent publication US8921362B2, “6,7-dialkoxy quinazoline derivatives and methods of treating drug resistant and other tumors” (Natco Pharma Limited, priority 2008, dated 2014)
# What was measured:
# Experiment in all cases: KinomeScan
# Type in all cases: binding
# Settings in all cases: read-out: % Ctrl @ 10000 nM
# NEK9 = biological target: T1, NEK9 (Homo sapiens, UniProt Q8TD19)
# T1 construct: host or cells: T7 phage grown in E. coli host derived from BL21
# Experimental: (§1) Kinase assays: Assays were performed as described in Fabian et al. (2005) Nature Biotechnology, vol. 23, p. 329. Kinase-tagged T7 phage strains were grown in parallel in 24 or 96-well blocks in an E. coli host derived from the BL21 strain. E. coli were grown to log-phase and infected with T7 phage from a frozen stock (multiplicity of infection ˜0.1) and incubated with shaking at 32° C. until lysis (−90 minutes). The lysates were centrifuged and filtered to remove cell debris. […] The liganded beads were blocked with excess biotin and washed with blocking buffer (SeaBlock (Pierce), 1% BSA, 0.05% Tween 20, 1 mM DTT) to remove unbound ligand and to reduce non-specific phage binding.
# (§2) Test compounds were prepared as 40× stocks in DMSO and diluted into the aqueous environment. 2.5% DMSO was added to control assays lacking a test compound. All reactions were performed in polystyrene 96-well plates that had been pretreated with blocking buffer in a final volume of 0.04 ml. […] The phage titer in the eluates was measured by quantitative PCR.
# EPHA3 = biological target: T2, EPHA3 (Homo sapiens, UniProt P29320)
# T2 construct: purchased Ambit Biosciences Corp; host or cells: T7 phage in E. coli host derived from BL21
# Experimental: as §1, §2
# ABL1(E255K) = biological target: T3, ABL1(E255K) (Homo sapiens, UniProt P00519, E255K)
# T3 construct: host or cells: E. coli (BL21-derived), T7 phage lysate
# Experimental: as §1, §2
# TSSK1B = biological target: T4, TSSK1B (Homo sapiens, UniProt Q9BXA7)
# T4 construct: host or cells: E. coli host derived from BL21, T7 phage
# Experimental: as §1, §2
# FES = biological target: T5, FES (Homo sapiens, UniProt P07332)
# T5 construct: host or cells: T7 phage in E. coli host derived from BL21
# Experimental: as §1, §2
# ADCK3 = biological target: T6, ADCK3 (Homo sapiens, UniProt Q8NI60)
# T6 construct: host or cells: E. coli (BL21-derived), T7 phage lysate
# Experimental: as §1, §2
# YANK3 = biological target: T7, YANK3 (Homo sapiens, UniProt Q86UX6)
# T7 construct: host or cells: E. coli host derived from BL21, T7 phage
# Experimental: as §1, §2
# CDC2L1 = biological target: T8, CDC2L1 (Homo sapiens, UniProt P21127)
# T8 construct: host or cells: T7 phage in E. coli host derived from BL21
# Experimental: as §1, §2
# JNK1 = biological target: T9, JNK1 (Homo sapiens, UniProt P45983)
# T9 construct: host or cells: T7 phage grown in E. coli host derived from BL21
# Experimental: as §1, §2
# PAK7 = biological target: T10, PAK7 (Homo sapiens, UniProt Q9P286)
# T10 construct: host or cells: E. coli host derived from BL21, infected with T7 phage
# Experimental: as §1, §2
# PAK4 = biological target: T11, PAK4 (Homo sapiens, UniProt O96013)
# T11 construct: host or cells: E. coli host derived from BL21, infected with T7 phage
# Experimental: as §1, §2
# STK16 = biological target: T12, STK16 (Homo sapiens, UniProt O75716)
# T12 construct: host or cells: T7 phage grown in E. coli (BL21-derived)
# Experimental: as §1, §2
# ERK8 = biological target: T13, ERK8 (Homo sapiens, UniProt Q8TD08)
# T13 construct: purchased Ambit Biosciences Corp; host or cells: T7 phage in E. coli host derived from BL21
# Experimental: as §1, §2
# SgK110 = biological target: T14, SgK110 (Homo sapiens, UniProt P0C264)
# T14 construct: host or cells: T7 phage grown in E. coli (BL21-derived)
# Experimental: as §1, §2
# ABL1(Y253F) = biological target: T15, ABL1(Y253F) (Homo sapiens, UniProt P00519, Y253F)
# T15 construct: host or cells: E. coli (BL21-derived), T7 phage lysate
# Experimental: as §1, §2
# FRK = biological target: T16, FRK (Homo sapiens, UniProt P42685)
# T16 construct: host or cells: T7 phage in E. coli host derived from BL21
# Experimental: as §1, §2
# ULK3 = biological target: T17, ULK3 (Homo sapiens, UniProt Q6PHR2)
# T17 construct: host or cells: E. coli host derived from BL21, T7 phage
# Experimental: as §1, §2
# TYRO3 = biological target: T18, TYRO3 (Homo sapiens, UniProt Q06418)
# T18 construct: host or cells: E. coli host derived from BL21, T7 phage
# Experimental: as §1, §2
# PRKR = biological target: T19, PRKR (Homo sapiens, UniProt P19525)
# T19 construct: host or cells: T7 phage in E. coli host derived from BL21
# Experimental: as §1, §2
# ZAK = biological target: T20, ZAK (Homo sapiens, UniProt Q9NYL2)
# T20 construct: host or cells: T7 phage grown in an E. coli host derived from BL21
# Experimental: as §1, §2
# JNK2 = biological target: T21, JNK2 (Homo sapiens, UniProt P45984)
# T21 construct: host or cells: T7 phage grown in E. coli host derived from BL21
# Experimental: as §1, §2
# BMPR2 = biological target: T22, BMPR2 (Homo sapiens, UniProt Q13873)
# T22 construct: host or cells: E. coli host derived from BL21
# Experimental: as §1, §2
# BRAF(V600E) = biological target: T23, BRAF(V600E) (Homo sapiens, UniProt P15056, V600E)
# T23 construct: host or cells: E. coli host derived from BL21
# Experimental: as §1, §2
# FLT3(D835H) = biological target: T24, FLT3(D835H) (Homo sapiens, UniProt P36888, D835H)
# T24 construct: host or cells: T7 phage in E. coli host derived from BL21
# Experimental: as §1, §2
# CAMK2A = biological target: T25, CAMK2A (Homo sapiens, UniProt Q9UQM7)
# T25 construct: host or cells: E. coli host derived from BL21
# Experimental: as §1, §2
# SIK2 = biological target: T26, SIK2 (Homo sapiens, UniProt Q9H0K1)
# T26 construct: host or cells: T7 phage grown in E. coli (BL21-derived)
# Experimental: as §1, §2
# TIE2 = biological target: T27, TIE2 (Homo sapiens, UniProt Q02763)
# T27 construct: host or cells: E. coli host derived from BL21, T7 phage
# Experimental: as §1, §2
# CAMK2G = biological target: T28, CAMK2G (Homo sapiens, UniProt Q13555)
# T28 construct: host or cells: E. coli host derived from BL21
# Experimental: as §1, §2
# NEK5 = biological target: T29, NEK5 (Homo sapiens, UniProt Q6P3R8)
# T29 construct: host or cells: T7 phage grown in E. coli host derived from BL21
# Experimental: as §1, §2
# FAK = biological target: T30, FAK (Homo sapiens, UniProt Q05397)
# T30 construct: purchased Ambit Biosciences Corp; host or cells: T7 phage in E. coli host derived from BL21
# Experimental: as §1, §2
# LYN = biological target: T31, LYN (Homo sapiens, UniProt P07948)
# T31 construct: host or cells: E. coli host derived from the BL21 strain, infected with T7 phage
# Experimental: as §1, §2
# PLK3 = biological target: T32, PLK3 (Homo sapiens, UniProt Q9H4B4)
# T32 construct: host or cells: T7 phage in E. coli host derived from BL21
# Experimental: as §1, §2
# PIK3CD = biological target: T33, PIK3CD (Homo sapiens, UniProt O00329)
# T33 construct: host or cells: T7 phage in E. coli host derived from BL21
# Experimental: as §1, §2
# PIM2 = biological target: T34, PIM2 (Homo sapiens, UniProt Q9P1W9)
# T34 construct: host or cells: T7 phage in E. coli host derived from BL21
# Experimental: as §1, §2
# CAMK4 = biological target: T35, CAMK4 (Homo sapiens, UniProt Q16566)
# T35 construct: host or cells: T7 phage in E. coli host derived from BL21
# Experimental: as §1, §2
# T22 sequence (Q13873 27-1038): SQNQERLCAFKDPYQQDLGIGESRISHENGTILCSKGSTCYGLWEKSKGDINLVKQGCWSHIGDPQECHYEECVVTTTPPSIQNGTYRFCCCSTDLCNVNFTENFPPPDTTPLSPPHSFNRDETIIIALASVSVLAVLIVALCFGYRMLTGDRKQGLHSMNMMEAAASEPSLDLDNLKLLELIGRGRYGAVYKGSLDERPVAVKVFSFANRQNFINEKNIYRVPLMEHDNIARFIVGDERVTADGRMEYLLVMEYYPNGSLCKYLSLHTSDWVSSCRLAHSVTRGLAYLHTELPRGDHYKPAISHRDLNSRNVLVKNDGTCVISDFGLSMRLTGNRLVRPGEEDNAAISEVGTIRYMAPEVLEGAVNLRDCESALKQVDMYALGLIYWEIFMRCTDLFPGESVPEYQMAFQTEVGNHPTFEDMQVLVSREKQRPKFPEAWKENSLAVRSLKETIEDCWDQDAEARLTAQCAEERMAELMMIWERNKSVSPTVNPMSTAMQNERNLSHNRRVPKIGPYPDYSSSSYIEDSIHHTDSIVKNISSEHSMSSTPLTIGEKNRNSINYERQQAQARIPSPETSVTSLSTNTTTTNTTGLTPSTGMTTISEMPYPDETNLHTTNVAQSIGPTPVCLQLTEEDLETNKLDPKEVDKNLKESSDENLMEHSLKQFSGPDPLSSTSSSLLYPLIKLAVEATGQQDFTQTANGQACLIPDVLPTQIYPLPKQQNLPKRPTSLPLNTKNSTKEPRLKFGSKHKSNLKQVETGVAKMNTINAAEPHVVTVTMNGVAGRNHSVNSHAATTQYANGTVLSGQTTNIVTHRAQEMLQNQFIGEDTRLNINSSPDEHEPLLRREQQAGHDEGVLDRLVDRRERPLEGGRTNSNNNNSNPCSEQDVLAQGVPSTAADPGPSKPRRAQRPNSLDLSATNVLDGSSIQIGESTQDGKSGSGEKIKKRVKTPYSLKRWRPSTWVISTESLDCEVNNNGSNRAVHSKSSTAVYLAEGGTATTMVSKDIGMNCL
# T4 sequence (Q9BXA7 whole entry): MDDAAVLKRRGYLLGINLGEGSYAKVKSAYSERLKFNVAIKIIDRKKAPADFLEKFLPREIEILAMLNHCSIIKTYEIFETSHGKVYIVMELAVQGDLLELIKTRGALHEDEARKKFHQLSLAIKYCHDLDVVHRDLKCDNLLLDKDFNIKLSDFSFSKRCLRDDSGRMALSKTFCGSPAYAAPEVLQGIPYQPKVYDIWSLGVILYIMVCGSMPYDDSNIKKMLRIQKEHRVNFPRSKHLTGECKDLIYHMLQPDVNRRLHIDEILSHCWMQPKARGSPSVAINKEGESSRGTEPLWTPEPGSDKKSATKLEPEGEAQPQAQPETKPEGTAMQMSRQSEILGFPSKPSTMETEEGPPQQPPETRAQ
# T6 sequence (Q8NI60 163-647): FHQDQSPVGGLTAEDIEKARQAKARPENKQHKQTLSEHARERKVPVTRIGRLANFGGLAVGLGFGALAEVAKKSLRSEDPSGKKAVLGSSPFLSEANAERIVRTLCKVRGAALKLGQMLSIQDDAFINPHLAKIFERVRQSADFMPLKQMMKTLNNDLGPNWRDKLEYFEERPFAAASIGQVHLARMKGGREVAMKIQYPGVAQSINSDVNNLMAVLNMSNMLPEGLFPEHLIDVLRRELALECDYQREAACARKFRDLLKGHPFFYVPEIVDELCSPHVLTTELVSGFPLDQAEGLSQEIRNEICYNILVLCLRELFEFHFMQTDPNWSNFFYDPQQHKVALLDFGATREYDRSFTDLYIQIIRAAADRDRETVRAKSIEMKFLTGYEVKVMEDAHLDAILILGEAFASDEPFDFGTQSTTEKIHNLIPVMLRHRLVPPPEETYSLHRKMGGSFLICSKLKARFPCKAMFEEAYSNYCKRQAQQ
# T8 sequence (P21127 whole entry): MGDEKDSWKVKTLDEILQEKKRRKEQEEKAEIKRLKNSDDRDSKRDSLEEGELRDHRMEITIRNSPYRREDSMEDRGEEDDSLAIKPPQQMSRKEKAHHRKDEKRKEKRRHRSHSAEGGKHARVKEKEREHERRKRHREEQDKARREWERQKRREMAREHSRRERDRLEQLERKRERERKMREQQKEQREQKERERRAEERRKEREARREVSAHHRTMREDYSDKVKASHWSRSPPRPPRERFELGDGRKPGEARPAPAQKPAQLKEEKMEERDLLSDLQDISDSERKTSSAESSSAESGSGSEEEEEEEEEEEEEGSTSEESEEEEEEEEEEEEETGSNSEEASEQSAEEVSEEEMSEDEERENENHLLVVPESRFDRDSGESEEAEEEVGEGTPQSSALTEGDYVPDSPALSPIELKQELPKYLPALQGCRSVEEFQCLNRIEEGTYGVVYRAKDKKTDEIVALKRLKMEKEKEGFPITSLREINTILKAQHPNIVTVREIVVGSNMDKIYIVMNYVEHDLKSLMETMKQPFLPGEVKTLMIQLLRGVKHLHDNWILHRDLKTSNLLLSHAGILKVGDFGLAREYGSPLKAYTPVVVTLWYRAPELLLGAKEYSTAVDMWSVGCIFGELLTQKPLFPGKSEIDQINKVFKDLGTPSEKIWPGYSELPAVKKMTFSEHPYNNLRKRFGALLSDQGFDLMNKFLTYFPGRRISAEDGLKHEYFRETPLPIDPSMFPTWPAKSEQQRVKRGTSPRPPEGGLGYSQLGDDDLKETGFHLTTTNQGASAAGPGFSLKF
# T17 sequence (Q6PHR2 whole entry): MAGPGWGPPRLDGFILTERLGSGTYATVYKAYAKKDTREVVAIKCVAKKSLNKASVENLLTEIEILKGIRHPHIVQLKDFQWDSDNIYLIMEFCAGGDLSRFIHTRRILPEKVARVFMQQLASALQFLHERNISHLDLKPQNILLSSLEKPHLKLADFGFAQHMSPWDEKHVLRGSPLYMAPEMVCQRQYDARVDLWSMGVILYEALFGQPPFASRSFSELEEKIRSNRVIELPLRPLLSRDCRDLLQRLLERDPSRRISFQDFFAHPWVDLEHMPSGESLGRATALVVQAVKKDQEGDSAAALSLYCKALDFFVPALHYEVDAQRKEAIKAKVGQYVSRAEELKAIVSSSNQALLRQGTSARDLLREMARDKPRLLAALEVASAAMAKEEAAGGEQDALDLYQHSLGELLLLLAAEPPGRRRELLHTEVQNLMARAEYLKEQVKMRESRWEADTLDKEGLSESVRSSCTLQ
# T19 sequence (P19525 whole entry): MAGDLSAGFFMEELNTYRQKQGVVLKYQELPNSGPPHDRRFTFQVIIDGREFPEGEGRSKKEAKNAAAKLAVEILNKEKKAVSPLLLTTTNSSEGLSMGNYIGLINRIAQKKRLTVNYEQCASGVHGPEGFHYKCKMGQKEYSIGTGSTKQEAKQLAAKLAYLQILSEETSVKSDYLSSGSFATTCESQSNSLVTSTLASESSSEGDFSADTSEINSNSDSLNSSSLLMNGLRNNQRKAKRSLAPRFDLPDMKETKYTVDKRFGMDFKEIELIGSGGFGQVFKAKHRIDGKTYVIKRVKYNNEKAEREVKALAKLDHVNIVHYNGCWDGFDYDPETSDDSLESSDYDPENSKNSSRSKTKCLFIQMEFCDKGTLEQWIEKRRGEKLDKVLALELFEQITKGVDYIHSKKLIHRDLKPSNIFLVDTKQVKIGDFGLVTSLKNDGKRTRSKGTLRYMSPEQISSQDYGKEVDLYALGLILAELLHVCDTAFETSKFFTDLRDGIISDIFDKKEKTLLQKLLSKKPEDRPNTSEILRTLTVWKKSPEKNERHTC
# T1 sequence (Q8TD19 whole entry): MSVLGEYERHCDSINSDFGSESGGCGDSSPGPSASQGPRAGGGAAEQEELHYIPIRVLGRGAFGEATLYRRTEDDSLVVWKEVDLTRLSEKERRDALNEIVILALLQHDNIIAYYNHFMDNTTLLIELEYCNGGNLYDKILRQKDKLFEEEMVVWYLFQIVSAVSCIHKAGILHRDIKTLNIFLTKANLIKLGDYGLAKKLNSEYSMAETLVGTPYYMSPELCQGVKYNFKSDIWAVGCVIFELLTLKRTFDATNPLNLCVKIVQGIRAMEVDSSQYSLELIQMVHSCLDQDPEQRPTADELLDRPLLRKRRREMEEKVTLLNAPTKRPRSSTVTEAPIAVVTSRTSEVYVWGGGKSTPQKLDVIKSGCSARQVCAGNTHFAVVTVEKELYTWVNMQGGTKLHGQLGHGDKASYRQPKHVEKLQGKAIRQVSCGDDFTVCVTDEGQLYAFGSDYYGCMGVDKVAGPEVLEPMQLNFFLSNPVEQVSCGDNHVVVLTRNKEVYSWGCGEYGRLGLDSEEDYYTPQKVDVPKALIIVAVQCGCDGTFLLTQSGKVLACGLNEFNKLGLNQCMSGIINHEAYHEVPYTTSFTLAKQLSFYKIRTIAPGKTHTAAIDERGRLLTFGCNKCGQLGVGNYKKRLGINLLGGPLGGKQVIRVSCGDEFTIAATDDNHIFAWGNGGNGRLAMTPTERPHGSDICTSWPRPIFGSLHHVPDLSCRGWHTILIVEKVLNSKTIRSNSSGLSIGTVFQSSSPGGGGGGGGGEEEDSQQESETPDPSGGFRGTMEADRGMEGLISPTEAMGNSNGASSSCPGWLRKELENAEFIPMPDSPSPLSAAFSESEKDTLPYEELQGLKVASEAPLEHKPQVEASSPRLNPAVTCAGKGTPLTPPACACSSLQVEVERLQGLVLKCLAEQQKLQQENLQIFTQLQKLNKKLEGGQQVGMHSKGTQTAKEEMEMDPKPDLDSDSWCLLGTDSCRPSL
# T34 sequence (Q9P1W9 whole entry): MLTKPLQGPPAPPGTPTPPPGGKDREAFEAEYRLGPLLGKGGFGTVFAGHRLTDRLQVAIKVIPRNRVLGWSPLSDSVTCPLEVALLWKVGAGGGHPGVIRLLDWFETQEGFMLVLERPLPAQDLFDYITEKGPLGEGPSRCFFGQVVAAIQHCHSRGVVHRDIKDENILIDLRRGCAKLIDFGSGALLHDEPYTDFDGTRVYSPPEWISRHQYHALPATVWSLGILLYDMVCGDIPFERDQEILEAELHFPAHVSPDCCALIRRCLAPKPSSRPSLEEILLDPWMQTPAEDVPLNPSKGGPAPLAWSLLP
compound,measurement,setting,value
"C#Cc1cccc(Nc2ncnc3cc(OC)c(OCCCN4CCOCC4)cc23)c1 [NRC-2694, N-(3-ethynylphenyl)-7-methoxy-6-[3-(4-morpholinyl)propoxy]-4-quinazolinamine]",remaining binding at 10 µM,NEK9,85%
same,remaining binding at 10 µM,EPHA3,56%
same,remaining binding at 10 µM,ABL1(E255K),80%
same,remaining binding at 10 µM,TSSK1B,93%
same,remaining binding at 10 µM,FES,72%
same,remaining binding at 10 µM,ADCK3,14%
same,remaining binding at 10 µM,YANK3,100%
same,remaining binding at 10 µM,CDC2L1,42%
same,remaining binding at 10 µM,JNK1,99%
same,remaining binding at 10 µM,PAK7,63%
same,remaining binding at 10 µM,PAK4,80%
same,remaining binding at 10 µM,STK16,100%
same,remaining binding at 10 µM,ERK8,62%
same,remaining binding at 10 µM,SgK110,83%
same,remaining binding at 10 µM,ABL1(Y253F),23%
same,remaining binding at 10 µM,FRK,10%
same,remaining binding at 10 µM,ULK3,62%
same,remaining binding at 10 µM,TYRO3,42%
same,remaining binding at 10 µM,PRKR,51%
same,remaining binding at 10 µM,ZAK,74%
same,remaining binding at 10 µM,JNK2,95%
same,remaining binding at 10 µM,BMPR2,100%
same,remaining binding at 10 µM,BRAF(V600E),73%
same,remaining binding at 10 µM,FLT3(D835H),8.1%
same,remaining binding at 10 µM,CAMK2A,63%
same,remaining binding at 10 µM,SIK2,21%
same,remaining binding at 10 µM,TIE2,76%
same,remaining binding at 10 µM,CAMK2G,58%
same,remaining binding at 10 µM,NEK5,94%
same,remaining binding at 10 µM,FAK,85%
same,remaining binding at 10 µM,LYN,13%
same,remaining binding at 10 µM,PLK3,97%
same,remaining binding at 10 µM,PIK3CD,89%
same,remaining binding at 10 µM,PIM2,83%
same,remaining binding at 10 µM,CAMK4,92%
